The text below walks through data of US12534457B2, “Heteroaryl derivative compounds, and uses thereof” (Voronoi Inc., priority 2021, dated 2026).

In experiment [1] the test system is Ba/F3 cells expressing EGFR Del19/C797S (EGFR DC). Put plainly: Proliferation inhibitory activity, Ba/F3 cells expressing EGFR Del19/C797S (CellTiter-Glo). Format: cell-based. As to conditions: Mus musculus, BaF3, 72 hours of compound treatment. The method in brief: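 Viability after 72 h of compound exposure was measured by luminescence (CellTiter-Glo) in Ba/F3 lines transduced with mutant EGFR. Final concentrations spanned 0.2 nM–5 μM over 12 threefold steps. Growth relative to untreated control gave GI50 values; each test was run three times.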

Experiment [2] deals with Ba/F3 cells expressing EGFR L858R/C797S (EGFR LC). Put plainly: Proliferation inhibitory activity, Ba/F3 cells expressing EGFR L858R/C797S (CellTiter-Glo). Format: cell-based. As to conditions: Mus musculus, BaF3, 72 hours of compound treatment. As for the experimental part:
The following experiments were performed to evaluate the inhibitory activity of the compounds according to the present disclosure on Ba/F3 proliferation expressing EGFR C797S, L861Q, G719A, S768I, L718Q, and/or G724S mutations.
For Ba/F3 cells, RPMI-1640 containing 10% FBS and 5 ng/ml IL-3 (R&D Systems) was used. Transduced Ba/F3 cells were cultured after adding 1 μg/ml puromycin (Invitrogen) to the same medium.
At 24 hours before treatment with the compounds, 3000 to 5000 cells were aliquoted into each well of a white clear bottom 96 well plate (Corning). The compounds were diluted in dimethyl sulfoxide (3 times dilution, 12 concentrations in total), and injected in an amount of 1 μl so that the final concentration was 0.2 nM to 5 uM. For measurement of living cells, after 72 hours of compound treatment, the cells were stored at room temperature for 10 min using CellTiter-Glo luminescentcell-viability reagent (Promega), and then luminescence intensity was measured using a reader (SynergyNeo, Biotek). Each test was repeated three times. Result values were calculated as the cell growth rate (%) compared to the control. The graphs were created using GraphPad Prism version 8.3.0 program and the GI50 values were calculated.

For the molecule `COc1cc(N2CCOCC2)c(-c2cnn(C)c2)cc1Nc1cc(N2OCC[C@@H]2c2cc(F)cc(F)c2)ncn1` [Example 7, (R)-6-(3-(3,5-difluorophenyl)isoxazolidin-2-yl)-N-(2-methoxy-5-(1-methyl-1H-pyrazol-4-yl)-4-morpholinophenyl)pyrimidin-4-amine], the GI50 in experiment [1] and in experiment [2] was 50 to 500 nM throughout.

Regarding `COc1cc(N2CCC(N3CCN(C)CC3)CC2)c(-c2cnn(C)c2)cc1Nc1cc(N2OCC[C@@H]2c2cc(F)cc(F)c2)ncn1` [Example 8, (R)-6-(3-(3,5-difluorophenyl)isoxazolidin-2-yl)-N-(2-methoxy-5-(1-methyl-1H-pyrazol-4-yl)-4-(4-(4-methylpiperazin-1-yl)piperidin-1-yl)phenyl)pyrimidin-4-amine], the 50% growth inhibitory concentration (GI50) in experiment [1] and in experiment [2] was below 50 nM throughout.

`COc1cc(N2CCC(N3CCC(N(C)C)CC3)CC2)c(-c2cnn(C)c2)cc1Nc1cc(N2OCC[C@@H]2c2cc(F)cc(F)c2)ncn1` [Example 10, (R)-1′-(4-((6-(3-(3,5-difluorophenyl)isoxazolidin-2-yl)pyrimidin-4-yl)amino)-5-methoxy-2-(1-methyl-1H-pyrazol-4-yl)phenyl)-N,N-dimethyl-[1,4′-bipiperidin]-4-amine]: the GI50 in experiment [1] and in experiment [2] was 50 to 500 nM throughout.

Regarding `CN1CCN(C2CCN(c3cc(Nc4cc(N5OCC[C@@H]5c5cc(F)cc(F)c5)ncn4)cc(S(C)(=O)=O)c3)CC2)CC1` [Example 11, (R)-6-(3-(3,5-difluorophenyl)isoxazolidin-2-yl)-N-(3-(4-(4-methylpiperazin-1-yl)piperidin-1-yl)-5-(methylsulfonyl)phenyl)pyrimidin-4-amine], the concentration for 50% growth inhibition (GI50) in experiment [1] and in experiment [2] was 50 to 500 nM in each case.

Take `CS(=O)(=O)c1cc(Nc2cc(N3OCC[C@@H]3c3cc(F)cc(F)c3)ncn2)cc(N2CCC(N3CCOCC3)CC2)c1` [Example 12, (R)-6-(3-(3,5-difluorophenyl)isoxazolidin-2-yl)-N-(3-(methylsulfonyl)-5-(4-morpholinopiperidin-1-yl)phenyl)pyrimidin-4-amine]: the 50% growth inhibitory concentration (GI50) in experiment [1] and in experiment [2] was 50 to 500 nM throughout.

Regarding `CN1CCN(c2cc(Nc3cc(N4OCC[C@@H]4c4cc(F)cc(F)c4)ncn3)cc(S(C)(=O)=O)c2)CC1` [Example 13, (R)-6-(3-(3,5-difluorophenyl)isoxazolidin-2-yl)-N-(3-(4-methylpiperazin-1-yl)-5-(methylsulfonyl)phenyl)pyrimidin-4-amine], the concentration for 50% growth inhibition (GI50) in experiment [1] and in experiment [2] was 50 to 500 nM each time.

Turning to `CN1CCN(c2cc(Nc3cc(N4OCC[C@@H]4c4cc(F)cc(F)c4)ncn3)cc(C(C)(C)C#N)c2)CC1` [Example 15, (R)-2-(3-((6-(3-(3,5-difluorophenyl)isoxazolidin-2-yl)pyrimidin-4-yl)amino)-5-(4-methylpiperazin-1-yl)phenyl)-2-methylpropanenitrile], the 50% growth inhibitory concentration (GI50) in experiment [1] and in experiment [2] was below 50 nM each time.

For the molecule `CN(C)C1CCN(C2CCN(c3ccc(Nc4cc(N5OCC[C@@H]5c5ccccc5)ncn4)cc3)CC2)CC1` [Example 84, (R)—N,N-dimethyl-1′-(4-((6-(3-phenylisoxazolidin-2-yl)pyrimidin-4-yl)amino)phenyl)-[1,4′-bipiperidin]-4-amine], the GI50 in experiment [1] and in experiment [2] was below 50 nM each time.

As for `COc1cc(Nc2cc(N3OCC[C@@H]3c3ccccc3)ncn2)ccc1N1CCN(C2CCN(C)CC2)CC1` [Example 102, (R)—N-(3-methoxy-4-(4-(1-methylpiperidin-4-yl)piperazin-1-yl)phenyl)-6-(3-phenylisoxazolidin-2-yl)pyrimidin-4-amine], the GI50 in experiment [1] and in experiment [2] was below 50 nM throughout.

As for `Cc1cc(Nc2cc(N3OCC[C@@H]3c3ccc(F)cc3F)ncn2)ccc1N1CCC(N2CCN(C)CC2)CC1` [Example 104, (R)-6-(3-(2,4-difluorophenyl)isoxazolidin-2-yl)-N-(3-methyl-4-(4-(4-methylpiperazin-1-yl)piperidin-1-yl)phenyl)pyrimidin-4-amine], the 50% growth inhibitory concentration (GI50) in experiment [1] and in experiment [2] was below 50 nM in each case.
